Results as given in patent US6602905B1, “N-acyl homoserine lactones for the treatment of cardiac tachyarrhythmias, ischaemic heart disease or congestive heart failure” (The University of Nottingham, priority 1999, dated 2003).

Assays:
Male rats (Long Evans) [1] = experiment: Cardiovascular variables in conscious rats after cardiac autonomic blockade with atenolol + atropine; assay type: in vivo, rat; conditions: 10 mg per kg i.v. after earlier administration of atenolol and atropine
Protocol: (§1) Male rats (Long Evans) of body mass in the range of from 350 to 450 g were used in the experiments.
(§2) The rats were instrumented with probes to monitor blood flow in renal, mesenteric and hindquarters vascular beds and with catheters to measure blood pressure and heart rate and to administer substances intravenously.
(§3) Measurements of the cardiovascular variables were made in the test rats which were conscious and able to move freely during the duration of the test procedure (10 minutes). The raw data were sampled (every 2 ms), averages were calculated (per cardiac cycle) and the data was stored to diskette (every 5 s). The stored data was analysed off line.
The following substances were administered intravenously to the test rats.
1) As in 2) in Experiment I above (∘)
2) Atenolol +atropine then as in 2) in Experiment I above (●).

Male rats (Long Evans) [2] = experiment: Cardiovascular variables in conscious, freely moving instrumented rats after intravenous injection; assay type: in vivo, rat; conditions: vs vehicle; for effect on the heart rate / effect on the mean arterial blood pressure: 10 mg per kg body weight i.v. in acetonitrile/dextrose
Protocol: as §1, §2, §3
The following substances were administered by intravenous injection to the test rats.
1) vehicle only (100 μl of 50:50 acetonitrile:dextrose)
2) 10 mg per kg body weight of N-(3-oxododecanoyl)homoserine lactone (OdDHL; Formula I; n=2, Y=X=O, R=3-oxododecanoyl). The OdDHL was dissolved in acetonitrile/dextrose (50 μl:50 μl) 100 μl.
3) vehicle only (100 μl of 50:50 acetonitrile:dextrose)
4) 10 mg per kg body weight of N-(3-oxoundecanoyl)homoserine lactone (OuDHL; Formula I; n=2, Y=X=O, R=3-oxoundecanoyl).
The OuDHL was dissolved in acetonitrile/dextrose (50 μl:50 μl) 100 μl.

Structure (SMILES)	bradycardia (heart rate) after cardiac autonomic blockade (Male rats (Long Evans) [1])	effect on the heart rate (Male rats (Long Evans) [2])	effect on the mean arterial blood pressure (Male rats (Long Evans) [2])	blood flow, particularly in the mesenteric and hindquarters (Male rats (Long Evans) [2]; 10 mg per kg body weight i.v.)
CCCCCCCCCC(=O)CC(=O)N[C@H]1CCOC1=O [OdDHL, N-(3-oxododecanoyl)homoserine lactone]	not observed	profound bradycardia	substantially no change	reduced
CCCCCCCCC(=O)CC(=O)NC1CCOC1=O (stereo not drawn) [OuDHL, N-(3-oxoundecanoyl)homoserine lactone]	–	marked bradycardia	substantially no change	–
